Assay results as given in patent US8088941B2, “Glycogen synthase kinase-3 inhibitors” (Tel Aviv University Future Technology Development L.P., priority 2001, dated 2012).
Counter-ions that a name gives are not always drawn. Like-named read-outs stand apart in the source and are kept apart here.

Key:
[1] = target: T1, recombinant rabbit GSK-3β (Oryctolagus cuniculus, UniProt G1T8E2); assay: In vitro GSK-3 inhibition assay with PGS-1 peptide substrate; type: biochemical; settings: for GSK-3 inhibition activity: preliminary inhibition assay, FIG. 5
Procedure: (§1) In vitro inhibition assays: Purified recombinant rabbit GSK-3β (Eldar-Finkelman et al., 1996) was incubated with peptide substrate PGS-1 ([…](p)EDEEE) (SEQ ID NO:1) or peptide substrate p9CREB (SEQ ID NO:2) and with phenyl phosphate, pyridoxal phosphate (P-5-P), GSC-1, GSC-2, GSC-3, GSC-4, GSC-5, GSC-6, GSC-7 or GSC-21 (structural formulas are depicted in FIG. 3), at indicated concentrations. The reaction mixture included Tris 50 mM (pH=7.3), 10 mM MgAc, ^32P[γ-ATP] (100 μM), 0.01% β-mercaptoethanol, and was incubated for 10 minutes at 30° C. Reactions were spotted on phosphocellulose paper (p81), washed with 100 mM phosphoric acid, and counted for radioactivity (as described in Eldar-Finkelman et al., 1996).
In vitro inhibition assays: In a preliminary inhibition assay, the GSK-3 inhibition activity of the known compounds phenyl phosphate, pyridoxal phosphate, GSC-1, GSC-2 and GSC-3 was tested as described hereinabove.
(§2) In an additional inhibition assay, the GSK-3 inhibition activity of GSC-1, GSC-2, GSC-3, GSC-4, and GSC-21 was tested. The ability of GSK-3 to phosphorylate PGS-1 peptide substrate was measured in the presence of indicated concentrations of these compounds. The results, presented in FIG. 6, represent the percentage of GSK-3 activity as compared with a control incubation without inhibitors and are mean of 2 independent experiments±SEM, where each point was assayed in triplicate.

CDK-2 = CDK-2 (Homo sapiens, UniProt P24941); assay: CDK-2 kinase activity with histone H1 substrate (selectivity); type: biochemical; settings: final concentration of 2 mM, FIG. 9
Procedure: The effect of GSC-4, GSC-5 and GSC-7 (100 and 200 μM) on other protein kinases was tested by incubating CDK-2 (1 unit) with a reaction mixture similar to that described hereinabove and containing histone H1 substrate (5 μg). The reactions were boiled with SDS sample buffer, separated on gel electrophoresis and autoradiographed.
The selectivity of the novel compounds towards GSK-3 was measured by evaluating the inhibition of CDK-2, a kinase closely related to GSK-3. Thus, CDK-2 activity was assayed in the presence of ^32P[γ-ATP] and histone H1 as a substrate. GSC-4, GSC-5 and GSC-7 were added at a final concentration of 2 mM.

Mice adipocytes = assay: Glucose uptake in isolated adipocytes; type: cell-based; settings: mouse primary adipocytes, 2.5 hours
Procedure: Glucose uptake in isolated adipocytes: Mice adipocytes were isolated from epididymal fat pad by digestion with 0.8 mg/ml collagenase (Worthington Biochemical) as described previously (Lawrence et al., 1977). Digested fat pads were passed through nylon mesh and cells were washed 3 times with Krebs-bicarbonate buffer (pH=7.4) containing 1% bovine serum albumin (Fraction V, Boehringer Mannheim, Germany), 10 mM HEPES (pH=7.3), 5 mM glucose and 200 nM adenosine. Cells were incubated with GSC-4 and GSC-21 at indicated concentrations for 2.5 hours, followed by addition of 2-deoxy [^3H] glucose (0.5 μci/vial) for 10 minutes. The assay was terminated by centrifugation of cells through dinonylphthalate (ICN, USA). ^3H was thereafter quantitated by liquid scintillation analyzer (Packard). Nonspecific uptake of 2-deoxy-[^3H] glucose was determined by the addition of cytochalasin B (50 μM) 30 minutes prior to the addition of radioactive material.
Glucose Uptake: The ability of the newly designed compounds GSC-4 and GSC-21 to promote glucose uptake was tested in mouse primary adipocytes as described hereinabove. The relative [^3H] 2-deoxy glucose incorporation observed in non-treated adipocytes was normalized to 1 unit and the values obtained for [^3H] 2-deoxy glucose in adipocytes treated with GSC-4 or GSC-21 are presented as fold activation over cells treated with the peptide control, and are the mean of 6 independent experiments±SEM, where each point was assayed in triplicate.

[2] = target: T1, recombinant rabbit GSK-3β; assay: In vitro GSK-3 inhibition assay with p9CREB peptide substrate; type: biochemical
Procedure: as §1
as §2, with “In still” for “In”, “additional” for “additional inhibition”, “GSC-4, GSC-5, GSC-6,” for “GSC-4,”, “GSC-7” for “GSC-21”, “p9CREB” for “PGS-1”, “FIGS. 7a and 7b,” for “FIG. 6,”
The kinetic nature of the inhibitors was studied by measuring the initial velocity as a function of the substrate concentration at several inhibitor concentrations. Lineweaver-Burk plots of the GSK-3 inhibition by these inhibitors confirmed the assumption that these are substrate-competitive inhibitors (data not shown). FIG. 8 presents the Lineweaver-Burk plot of the GSK-3 inhibition by gsc-7, as an exemplary inhibitor, represented by phosphate incorporation into p9CREB peptide substrate (CPM). […] Each point is a mean of duplicated sample.
The ability of GSK-3 to phosphorylate p9CREB peptide substrate was measured in the presence of indicated concentrations of MP molecules, using the protocol described hereinabove in Example 3. The results, presented in FIG. 19, represent the percentage of GSK-3 activity in control incubation in which inhibitors were omitted. Results are mean of 2 independent experiments±SEM, where each point was assayed in duplicate.

glycogen synthase = assay: Activation of glycogen synthase in C2C12 cells; type: cell-based; settings: 2.5 hours, FIG. 10
Procedure: Activation of glycogen synthase by GSK-3 inhibitors: Activation of glycogen synthase can serve as a good marker for inhibition of GSK-3. […] Thus, activation of glycogen synthase by GSC-5 and GSC-7 was tested in C2C12 myotubes. C2C12 cells were treated with GSC-5 and GSC-7 for 2.5 hours at indicated concentrations and lysate supernatants were thereafter assayed for glycogen synthase activity. The activity of glycogen synthase in cells treated with vehicle DMSO (0.1% DMSO) was normalized to 1 unit and the values for glycogen synthase activity observed in cells treated with GSK-3 inhibitors are presented as fold stimulation over the cells treated with vehicle […].
Activation of glycogen synthase by GSK-3 inhibitors: Activation of glycogen synthase activity in C2C12 cells treated with GSC-5 and GSC-7 was assayed as described hereinabove. The activity of glycogen synthase in cells treated with vehicle DMSO (0.1% DMSO) was normalized to 1 unit and the values for glycogen synthase activity observed in cells treated with GSK-3 (GS4 (hollow circles) GS6 (filled circles) are presented as fold stimulation over the cells treated with vehicle 0.1% HCL.

GSK-3 = GSK-3 (Oryctolagus cuniculus, UniProt A0A5F9DUX8); assay: Time course analyses of peptide phosphorylation by GSK-3; type: biochemical
[3] = MP molecules, p9CREB peptide substrate, FIG. 19

T1 sequence (G1T8E2 1-432): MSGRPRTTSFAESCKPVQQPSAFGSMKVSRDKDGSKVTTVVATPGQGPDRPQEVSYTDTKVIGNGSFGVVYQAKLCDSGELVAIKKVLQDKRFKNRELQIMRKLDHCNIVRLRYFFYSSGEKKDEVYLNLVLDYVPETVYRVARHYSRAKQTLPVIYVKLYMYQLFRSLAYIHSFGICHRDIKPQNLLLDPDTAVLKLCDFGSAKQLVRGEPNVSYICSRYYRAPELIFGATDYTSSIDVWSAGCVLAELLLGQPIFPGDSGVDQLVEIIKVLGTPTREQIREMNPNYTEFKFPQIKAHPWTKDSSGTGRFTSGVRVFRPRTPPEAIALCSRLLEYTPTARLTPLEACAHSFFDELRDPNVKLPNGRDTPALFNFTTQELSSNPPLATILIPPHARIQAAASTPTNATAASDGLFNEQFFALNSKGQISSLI
GSK-3, sequence (A0A5F9DUX8 entry or part of it): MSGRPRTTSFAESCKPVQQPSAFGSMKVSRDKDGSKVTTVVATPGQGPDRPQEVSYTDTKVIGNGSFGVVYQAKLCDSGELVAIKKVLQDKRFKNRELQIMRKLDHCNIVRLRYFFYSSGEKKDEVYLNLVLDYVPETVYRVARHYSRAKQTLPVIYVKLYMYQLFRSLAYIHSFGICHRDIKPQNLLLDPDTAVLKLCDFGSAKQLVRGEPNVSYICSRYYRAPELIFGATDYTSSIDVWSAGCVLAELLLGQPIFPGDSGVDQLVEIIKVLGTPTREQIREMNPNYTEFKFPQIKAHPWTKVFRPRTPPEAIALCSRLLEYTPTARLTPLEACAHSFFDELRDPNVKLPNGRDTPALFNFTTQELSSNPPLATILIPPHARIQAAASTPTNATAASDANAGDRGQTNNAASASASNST

Cc1ccc(COP(=O)(O)O)cc1 [GSC-2, p-methyl benzyl phosphate]
GSK-3 inhibition activity [1]: exerted an inhibition activity

N=C(N)Nc1cccc(COP(=O)(O)O)c1 [GSC-4, 3-guanidinobenzyl phosphate]
Inhibition of histone H1 phosphorylation by CDK-2 (CDK-2): no inhibition of histone H1 phosphorylation was observed | Glucose uptake ([3H] 2-deoxy glucose incorporation), fold activation (Mice adipocytes; 10 μM): ~2 fold | IC50 ([2]; p9CREB peptide substrate, FIGS. 7a-b, most active compounds): 500 µM | GSK-3 inhibition activity (ranking) ([1]; PGS-1 peptide substrate, FIG. 6): most active compounds

N=C(N)NCc1cccc(COP(=O)(O)O)c1 [GSC-5, 3-(guanidinomethy)benzyl phosphate]
Glycogen synthase activity, fold stimulation over vehicle (glycogen synthase): 1.5 fold | Inhibition of histone H1 phosphorylation by CDK-2 (CDK-2): no inhibition of histone H1 phosphorylation was observed

N=C(N)Nc1cc(COP(=O)(O)O)cc(NC(=N)N)c1 [GSC-7, 3,5-bisguanidino benzyl phosphate]
Glycogen synthase activity, fold stimulation over vehicle (glycogen synthase): 1.8 fold | Inhibition of histone H1 phosphorylation by CDK-2 (CDK-2): no inhibition of histone H1 phosphorylation was observed | IC50 [2]: 500 µM | Kinetic nature of inhibition (Lineweaver-Burk plot) ([2]; phosphate incorporation into p9CREB, FIG. 8): competitive specific inhibitor

NCCc1cc(CCN)cc(COP(=O)(O)O)c1 [GSC-21, 3,5-bis(2-aminoethyl)benzyl phosphate]
Glucose uptake ([3H] 2-deoxy glucose incorporation), fold activation (Mice adipocytes; 0.5 μM): 1.7 fold | Glucose uptake ([3H] 2-deoxy glucose incorporation), fold activation (Mice adipocytes; 5 μM): 2.5 fold

N=C(N)Nc1cccc(-c2cn(-c3cccc(COP(=O)(O)O)c3)nn2)c1 [MP-1, 3-(4-(3-guanidinophenyl)-1,2,3-triazol-1-yl)benzyl phosphoric acid hydrochloride]
IC50 [2, 3]: ~1000 µM

N=C(N)Nc1ccc(-c2cn(-c3cccc(COP(=O)(O)O)c3)nn2)cc1 [MP-4, 3-(4-(4-guanidinophenyl)-1,2,3-triazol-1-yl)benzyl phosphoric acid hydrochloride]
IC50 [2, 3]: ~1000 µM

O=P(O)(O)Oc1ccccc1 [phenyl phosphate, reference compound]
GSK-3 inhibition activity [1]: exerted an inhibition activity

Cc1ncc(COP(=O)(O)O)c(C=O)c1O [pyridoxal phosphate, reference compound]
GSK-3 inhibition activity [1]: exerted an inhibition activity

ILSRRPEYR [9ECREB]
Phosphorylation of peptide by GSK-3 (substrate) (GSK-3): completely failed to be phosphorylated

ILSRRPSYR [9CREB]
Phosphorylation of peptide by GSK-3 (substrate) (GSK-3): completely failed to be phosphorylated
